Measured values published in US8288371B2, “Ortho pyrrolidine, benzyl-substituted heterocycle CCR1 antagonists for autoimmune diseases and inflammation” (Pharmacopeia, LLC, priority 2007, dated 2012).

biological target: T1, human CCR1 (Homo sapiens, UniProt P32246); experiment: CCR1 binding protocol (SPA, [125I]-MIP-1α displacement); details: cell membrane expressing human CCR1, 0.1 nM [125I]-MIP-1α, 4 hours at ambient temperature; read-out: Relative potency (IC50)
T1 sequence (P32246 1-355): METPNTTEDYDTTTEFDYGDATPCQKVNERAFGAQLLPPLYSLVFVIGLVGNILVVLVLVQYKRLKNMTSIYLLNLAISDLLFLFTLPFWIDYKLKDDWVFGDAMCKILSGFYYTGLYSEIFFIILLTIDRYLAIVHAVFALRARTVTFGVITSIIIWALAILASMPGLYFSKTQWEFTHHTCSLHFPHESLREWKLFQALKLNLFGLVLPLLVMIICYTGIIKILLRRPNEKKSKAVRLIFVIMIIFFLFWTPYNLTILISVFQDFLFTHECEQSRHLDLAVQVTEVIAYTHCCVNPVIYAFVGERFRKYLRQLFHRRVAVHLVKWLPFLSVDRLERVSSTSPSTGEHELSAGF
How it was run: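 Displacement of 0.1 nM [125I]-MIP-1α (final) from membranes expressing human CCR1 was measured by scintillation proximity after 4 h at ambient temperature. Conditions: pH 7.4 Tris buffer with 0.1% BSA and MnCl, and 0.5 μg membrane per well. Compounds were tested as a 10-step ½-log series from a 10 mM DMSO stock to derive IC50.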

| SMILES | IC50 |
| --- | --- |
| Cc1nnc([C@H]2CCCN2/C(=C/[N+](=O)[O-])NCc2ccc(Cl)cc2Cl)n1Cc1ccc(Cl)cc1 [Compound 612] | 50 to 500 nM |
| Cc1c(NC(=O)N2CCC[C@@H]2c2nnc(C)n2Cc2ccc(Cl)cc2)cccc1C(=O)N(C)C [Compound 238] | 50 to 500 nM |
| Cc1nnc([C@H]2CCCN2C(=O)NC2COCc3c(F)cccc32)n1Cc1ccc(Cl)cc1 (some centres unmarked) [Compound 142] | 50 to 500 nM |
| CC(=O)O[C@H]1C[C@H](c2nnc(C)n2Cc2ccc(Cl)cc2)N(C(=O)Nc2ccc(Cl)cc2F)C1 [Compound 481] | 500 to 5000 nM |
| Cc1cc(C(F)(F)F)ccc1NC(=O)N1CCC[C@@H]1c1ncnn1Cc1ccc(Cl)cc1 [Compound 63] | < 50 nM |
| O=C(Nc1ccc(Cl)cc1F)N1CCC[C@@H]1c1nnsc1Cc1ccc(Cl)cc1 [Compound 628] | 50 to 500 nM |
| COCc1nnc([C@H]2CCCN2C(=O)N[C@H]2CCOc3cc(C(F)(F)F)ccc32)n1Cc1ccc(Cl)cc1 [Compound 459] | < 50 nM |
| Cc1nnc([C@H]2CCCN2C(=O)Nc2ccc(C#N)nc2)n1Cc1ccc(Cl)cc1 [Compound 396] | 50 to 500 nM |
| Cc1nnc([C@H]2CCCN2C(=O)Cc2ccc(C(F)(F)F)cc2)n1Cc1ccc(Cl)cc1 [Compound 173] | 50 to 500 nM |
| Cc1nnc([C@H]2CCCN2C(=O)Nc2ncc(Cl)cn2)n1Cc1ccc(Cl)cc1 [Compound 344] | 500 to 5000 nM |
| O=C(N[C@H]1CCCOc2ccc(Cl)cc21)N1CCC[C@@H]1c1nncn1Cc1ccc(Cl)cc1 [Compound 159] | 50 to 500 nM |
| Cc1nnc([C@H]2CCCN2C(=O)Nc2cnc(C(F)(F)F)nc2)n1Cc1ccc(Cl)cc1 [Compound 453] | 50 to 500 nM |
| Cc1nnc([C@H]2CCCN2C(=O)Nc2ccc(Br)cc2)n1Cc1ccc(Cl)cc1 [Compound 162] | 50 to 500 nM |
| CCc1cc(Cn2c(C)nnc2[C@H]2CCCN2C(=O)Nc2ccc(Cl)cc2F)ccc1Cl [Compound 635] | 50 to 500 nM |
| Cc1nnc([C@H]2CCCN2C(=O)Cc2cccc(C(F)(F)F)c2F)n1Cc1ccc(Cl)cc1 [Compound 505] | 50 to 500 nM |
| COC(=O)c1cc(NC(=O)N2CCC[C@@H]2c2nnc(C)n2Cc2ccc(Cl)cc2)c(C)cc1C [Compound 318] | < 50 nM |
| Cc1nnc([C@H]2CCCN2C(=O)Nc2ccc(C(F)(F)F)cc2Cl)n1Cc1ccc(Cl)cc1 [Compound 154] | 50 to 500 nM |
| Cc1nnc([C@H]2CCCN2C(=O)Nc2ccc(S(C)(=O)=O)cc2Cl)n1Cc1ccc(Cl)cc1 [Compound 331] | 50 to 500 nM |
| Cc1cc(C)c(S(N)(=O)=O)cc1NC(=O)N1CCC[C@@H]1c1nnc(C)n1Cc1ccc(Cl)cc1 [Compound 469] | < 50 nM |
| CC[C@H](NC(=O)N1CCC[C@@H]1c1nc(C)nn1Cc1ccc(Cl)cc1)c1cc2ccccc2o1 [Compound 95] | 50 to 500 nM |
| CC[C@@H](NC(=O)N1CCC[C@@H]1c1nnc(C)n1Cc1ccc(Cl)cc1)c1ccccc1 [Compound 285] | < 50 nM |
| Cc1ncc(Cc2ccc(Cl)cc2)c([C@H]2CCCN2C(=O)Nc2c(C)noc2-c2ccccc2)n1 [Compound 21] | 50 to 500 nM |
| O=C(Nc1ccc(Cl)cc1F)N1C[C@H](O)C[C@@H]1c1nncn1Cc1ccc(Cl)cc1 [Compound 480] | 50 to 500 nM |
| O=C(Nc1ccc(Cl)cc1F)N1CCC[C@@H]1c1nnc(Cl)n1Cc1ccc(Cl)cc1 [Compound 552] | < 50 nM |
| Cc1cc(C)c(S(=O)(=O)N(C)C)cc1NC(=O)N1CCC[C@@H]1c1nnc(C)n1Cc1ccc(F)cc1 [Compound 587] | < 50 nM |
| CNC(=O)c1cc(NC(=O)N2CCC[C@@H]2c2nnc(C)n2Cc2ccc(Cl)cc2)c(C)cc1C [Compound 380] | < 50 nM |
| Cc1nnc([C@H]2C[C@@H](O)CN2C(=O)NC(c2ccccc2)c2ccccc2)n1Cc1ccc(Cl)cc1 [Compound 389] | 50 to 500 nM |
| CC1(C)CC(NC(=O)N2CCC[C@@H]2c2nnnn2Cc2ccc(Cl)cc2)c2ccccc2O1 (some centres unmarked) [Compound 49] | 50 to 500 nM |
| CC(=O)N1CCC(NC(=O)N2CCC[C@@H]2c2nnc(C)n2Cc2ccc(Cl)cc2)c2ccccc21 (some centres unmarked) [Compound 604] | < 50 nM |
